Data published in patent US20150239889A1, “PYRAZOLOPYRIMIDINE COMPOUND” (MITSUBISHI TANABE PHARMA CORPORATION, priority 2012, published 2015).

Assays:
human HIF-PHD3 = target: T1, human HIF-PHD3 (Homo sapiens, UniProt Q9H6Z9); assay: HIF-PHD inhibition assay (fluorescence polarization), human HIF-PHD3; format: biochemical; settings: 2-oxoglutaric acid 166 μmol/L
T1 construct: purchased CrystalGenomics Ltd
Method in brief: (§1)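 Activity was derived as the fluorescence polarization (mP) after enzyme addition minus that measured before enzyme addition. Probe bore a 5′-fluoresceinamide (FAM) label with an aminocaproic acid (ACA) linker.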

human HIF-PHD2 = target: T2, human HIF-PHD2 (Homo sapiens, UniProt Q9GZT9); assay: HIF-PHD inhibition assay (fluorescence polarization), human HIF-PHD2; format: biochemical; settings: 2-oxoglutaric acid 3.33 μmol/L
T2 construct: purchased CrystalGenomics Ltd
Method in brief: as §1

Hep3B cells = assay: EPO production assay (ELISA of culture supernatant); format: cell-based; settings: Homo sapiens, 3 μmol/L test compound, 48 hours, relative to control (0.1% DMSO), read-out: EPO production stimulation rate with 3 μmol/L test compound
Method in brief: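 Hep3B cells (40000/well) switched to MEM with 0.5% FBS and treated with compound (0.1% DMSO) for 48 h at 37 °C. Supernatant EPO measured by ELISA; value is fold stimulation at 3 μmol/L compound over unstimulated control.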

T2 sequence (Q9GZT9 2-426 limits assumed): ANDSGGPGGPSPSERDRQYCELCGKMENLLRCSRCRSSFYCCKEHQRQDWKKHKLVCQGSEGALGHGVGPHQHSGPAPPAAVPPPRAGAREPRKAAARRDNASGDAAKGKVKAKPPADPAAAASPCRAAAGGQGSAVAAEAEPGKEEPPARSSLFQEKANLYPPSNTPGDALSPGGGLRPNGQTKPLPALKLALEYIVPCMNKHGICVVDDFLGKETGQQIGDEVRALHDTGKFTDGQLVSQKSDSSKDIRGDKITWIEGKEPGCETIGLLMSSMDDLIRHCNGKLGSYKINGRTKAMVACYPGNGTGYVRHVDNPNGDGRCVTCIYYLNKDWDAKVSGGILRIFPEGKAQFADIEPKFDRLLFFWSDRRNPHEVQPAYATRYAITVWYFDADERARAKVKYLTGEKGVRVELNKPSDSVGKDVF
T1 sequence (Q9H6Z9 whole entry): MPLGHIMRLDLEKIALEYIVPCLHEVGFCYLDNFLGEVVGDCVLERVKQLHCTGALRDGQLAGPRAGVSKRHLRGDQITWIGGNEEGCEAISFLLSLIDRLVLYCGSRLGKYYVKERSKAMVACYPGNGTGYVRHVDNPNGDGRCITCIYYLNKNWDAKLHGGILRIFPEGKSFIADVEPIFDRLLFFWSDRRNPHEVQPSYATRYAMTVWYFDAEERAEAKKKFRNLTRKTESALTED

Compound	IC50 (human HIF-PHD3) [nM]	IC50 (human HIF-PHD2) [nM]	fold induction at 3 µM (Hep3B cells)
O=C(O)c1cnn(-c2nc(O)c3c(cnn3CCCN(c3ccccc3)c3ccccc3)n2)c1 [Example 168]	200	23	66
O=C(O)c1cnn(-c2nc(O)c3c(cnn3CC3CCN(c4ccc(C(F)(F)F)cc4)CC3)n2)c1 [Example 170]	280	19	19
O=C(O)c1cnn(-c2nc(O)c3c(cnn3CC3CCN(c4ccc(C(F)(F)F)cn4)CC3)n2)c1 [Example 171]	160	14	11
O=C(O)c1cnn(-c2nc(O)c3c(cnn3CCC3CCN(c4ccc(C(F)(F)F)cc4)CC3)n2)c1 [Example 172]	250	34	19
O=C(O)c1cnn(-c2nc(O)c3c(cnn3CCCOc3ccccc3C(F)(F)F)n2)c1 [Example 173]	190	13	7.7
O=C(O)c1cnn(-c2nc(O)c3c(cnn3CCCOc3cccc(C(F)(F)F)c3)n2)c1 [Example 174]	570	32	9.9
O=C(O)c1cnn(-c2nc(O)c3c(cnn3CCCOc3ccc(C(F)(F)F)cc3)n2)c1 [Example 175]	390	21	15
O=C(O)c1cnn(-c2nc(O)c3c(cnn3CCCOc3ccc(C(F)(F)F)cc3Cl)n2)c1 [Example 176]	170	19	22
O=C(O)c1cnn(-c2nc(O)c3c(cnn3CCCOc3ccc(Cl)c(C(F)(F)F)c3)n2)c1 [Example 177]	170	28	9.1
CC(C)(C)c1ccc(OCCCn2ncc3nc(-n4cc(C(=O)O)cn4)nc(O)c32)cc1 [Example 178]	570	24	37
CC(C)(C)c1cccc(OCCCn2ncc3nc(-n4cc(C(=O)O)cn4)nc(O)c32)c1 [Example 179]	160	45	14
O=C(O)c1cnn(-c2nc(O)c3c(cnn3CCCOc3ccc(OCc4ccccc4)c(F)c3)n2)c1 [Example 181]	220	35	34
Cc1cc(OCCCn2ncc3nc(-n4cc(C(=O)O)cn4)nc(O)c32)cc(C)c1Cl [Example 182]	56	22	9.1
O=C(O)c1cnn(-c2nc(O)c3c(cnn3CCCOc3cc(C(F)(F)F)cc(C(F)(F)F)c3)n2)c1 [Example 183]	340	63	7.5
O=C(O)c1cnn(-c2nc(O)c3c(cnn3CCCOc3ccc4ccccc4c3)n2)c1 [Example 187]	220	12	10
O=C(O)c1cnn(-c2nc(O)c3c(cnn3CCCOc3ccc4c(c3)CCCC4)n2)c1 [Example 188]	540	14	23
Cc1cc2c(cc1OCCCn1ncc3nc(-n4cc(C(=O)O)cn4)nc(O)c31)CCCC2 [Example 189]	150	20	8.7
O=C(O)c1cnn(-c2nc(O)c3c(cnn3CCCOc3ccc4c(c3C3CC3)CCCC4)n2)c1 [Example 191]	540	130	1.6
O=C(O)c1cnn(-c2nc(O)c3c(cnn3CCCOc3cccc4ccccc34)n2)c1 [Example 192]	350	28	3.5
O=C(O)c1cnn(-c2nc(O)c3c(cnn3CCCOc3cccc4c3CCCC4)n2)c1 [Example 193]	190	85	9.8
O=C(O)c1cnn(-c2nc(O)c3c(cnn3CCCOc3ccc(Cl)c4c3CCC4)n2)c1 [Example 194]	53	14	18

Compound	IC50 (human HIF-PHD3) [nM]	IC50 (human HIF-PHD2) [nM]	fold induction at 3 µM (Hep3B cells)
O=C(O)c1cnn(-c2nc(O)c3c(cnn3CCCOc3ccc(-c4ccccc4)cc3)n2)c1 [Example 196]	300	20	25
CC(C)(COc1ccc(Cl)cc1)Cn1ncc2nc(-n3cc(C(=O)O)cn3)nc(O)c21 [Example 197]	760	190	5.8
O=C(O)c1cnn(-c2nc(O)c3c(cnn3CC3(COc4ccc(Cl)cc4)CC3)n2)c1 [Example 198]	1200	89	3.2
O=C(O)c1cnn(-c2nc(O)c3c(cnn3CC3(COc4ccc5c(c4)CCCC5)CC3)n2)c1 [Example 199]	1100	130	5
O=C(O)c1cnn(-c2nc(O)c3c(cnn3CCOc3ccccc3)n2)c1 [Example 200]	1800	12	1.4
O=C(O)c1cnn(-c2nc(O)c3c(cnn3CCOc3ccccc3C(F)(F)F)n2)c1 [Example 201]	860	130	3.2
O=C(O)c1cnn(-c2nc(O)c3c(cnn3CCOc3cccc(C(F)(F)F)c3)n2)c1 [Example 202]	300	59	3.6
O=C(O)c1cnn(-c2nc(O)c3c(cnn3CCOc3ccc(C(F)(F)F)cc3)n2)c1 [Example 203]	170	65	4.5
CC(C)(C)c1ccc(OCCn2ncc3nc(-n4cc(C(=O)O)cn4)nc(O)c32)cc1 [Example 204]	650	19	12
O=C(O)c1cnn(-c2nc(O)c3c(cnn3CCOc3ccc(-c4ccccc4)cc3)n2)c1 [Example 205]	280	13	20
O=C(O)c1cnn(-c2nc(O)c3c(cnn3CCOc3cccc4ccccc34)n2)c1 [Example 206]	510	32	2.2
O=C(O)c1cnn(-c2nc(O)c3c(cnn3CCOc3ccc4ccccc4c3)n2)c1 [Example 207]	160	13	2.5
O=C(O)c1cnn(-c2nc(O)c3c(cnn3CCOc3ccc4c(c3)CCCC4)n2)c1 [Example 208]	240	14	7.1
CC(C)(Cn1ncc2nc(-n3cc(C(=O)O)cn3)nc(O)c21)Oc1ccccc1Cl [Example 209]	230	33	2.2
CC(C)(Cn1ncc2nc(-n3cc(C(=O)O)cn3)nc(O)c21)Oc1ccc(Cl)cc1 [Example 210]	220	21	19
Cc1ccc(OC(C)(C)Cn2ncc3nc(-n4cc(C(=O)O)cn4)nc(O)c32)c2c1CCC2 [Example 211]	180	26	8.9
CC(C)(Cn1ncc2nc(-n3cc(C(=O)O)cn3)nc(O)c21)Oc1cccc2ccccc12 [Example 212]	310	26	2.7
CC(C)(Cn1ncc2nc(-n3cc(C(=O)O)cn3)nc(O)c21)Oc1ccc2ccccc2c1 [Example 213]	110	17	6.4
CC(C)(Cn1ncc2nc(-n3cc(C(=O)O)cn3)nc(O)c21)Oc1ccc2c(c1)CCCC2 [Example 214]	220	17	6.8
O=C(O)c1cnn(-c2nc(O)c3c(cnn3CCCCOc3ccc(F)cc3)n2)c1 [Example 215]	290	14	6.7
O=C(O)c1cnn(-c2nc(O)c3c(n2)c(F)nn3Cc2ccc3ccccc3c2)c1 [Example 216]	300	15	1.5
